# Compound: CC1(C)CCC(CN2CCN(c3ccc(C(=O)NS(=O)(=O)c4ccc(NCC5CCOCC5)c([N+](=O)[O-])c4)c(Oc4cnc5[nH]ccc5c4)c3)CC2)=C(c2ccc(Cl)cc2)C1 [Venetoclax] + Cc1cc(Nc2cc(N3CCN(C)CC3)nc(Sc3ccc(NC(=O)C4CC4)cc3)n2)n[nH]1 [Tozasertib] (partner 0.1 µM)
# Experiment: relative viability (nuclei count vs DMSO), 5 days (fraction); higher = more cells survive
# Conditions: first compound 0.01 µM
# Outline: (§1)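 Relative viability is defined as nuclei in treated wells over nuclei in vehicle wells. Duplicate plates were run and medians reported. Lung cancer cell lines in 1536-well plates were dosed by pin tool one day after seeding, with one drug or with a fixed anchor-drug dose plus five library-drug doses (not always all listed) in √10 steps, and nuclei were counted after 5 days.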
row,Cell Line,relative viability
1,201T,0.826
2,NCI-H1993,0.588
3,HOP-62,0.414
4,NCI-H1355,0.548
5,NCI-H2405,0.741
6,NCI-H1437,0.392
7,CAL-12T,0.302
8,H3255,0.564
9,NCI-H2347,0.581
10,NCI-H1975,0.763
11,NCI-H441,0.587
12,NCI-H1915,0.452
13,NCI-H2087,0.278
14,HCC-366,0.094
15,NCI-H1793,0.227
16,RERF-LC-KJ,0.444

# Same assay, conditions: first compound 0.03162 µM
row,Cell Line,relative viability
1,LC-2-ad,0.398
2,LXF-289,0.218
3,NCI-H2170,0.68
4,NCI-H322M,0.477
5,HCC-78,0.454
6,BEN,0.476
7,HCC-15,0.47
8,HCC-827,0.413
9,NCI-H460,0.387
10,LU99A,0.26
11,NCI-H2085,0.77
12,A-427,0.24
13,NCI-H838,0.246
14,NCI-H596,0.74
15,NCI-H3122,0.565
16,NCI-H1395,0.85

row,Cell Line,relative viability
1,201T,0.957
2,NCI-H1993,0.561
3,HOP-62,0.321
4,NCI-H1355,0.62
5,NCI-H2405,0.783
6,NCI-H1437,0.426
7,CAL-12T,0.346
8,H3255,0.525
9,NCI-H2347,0.634
10,NCI-H1975,0.711
11,NCI-H441,0.603
12,NCI-H1915,0.454
13,NCI-H2087,0.261
14,HCC-366,0.119
15,NCI-H1793,0.347
16,RERF-LC-KJ,0.504

# Same assay, conditions: first compound 0.1 µM
row,Cell Line,relative viability
1,LC-2-ad,0.425
2,LXF-289,0.187
3,NCI-H2170,0.592
4,NCI-H322M,0.477
5,HCC-78,1.29
6,BEN,0.373
7,HCC-15,0.371
8,HCC-827,0.4
9,NCI-H460,0.126
10,LU99A,0.234
11,NCI-H2085,0.757
12,A-427,0.212
13,NCI-H838,0.303
14,NCI-H596,0.966
15,NCI-H3122,0.357
16,NCI-H1395,0.705

row,Cell Line,relative viability
1,201T,0.945
2,NCI-H1993,0.614
3,HOP-62,0.409
4,NCI-H1355,0.482
5,NCI-H2405,0.632
6,NCI-H1437,0.408
7,CAL-12T,0.28
8,H3255,0.615
9,NCI-H2347,0.476
10,NCI-H1975,0.726
11,NCI-H441,0.86
12,NCI-H1915,0.392
13,NCI-H2087,0.245
14,HCC-366,0.123
15,NCI-H1793,0.321
16,RERF-LC-KJ,0.533

# Same assay, conditions: first compound 0.3162 µM
row,Cell Line,relative viability
1,LC-2-ad,0.535
2,LXF-289,0.216
3,NCI-H2170,0.646
4,NCI-H322M,0.555
5,HCC-78,0.404
6,BEN,0.476
7,HCC-15,0.324
8,HCC-827,0.416
9,NCI-H460,0.266
10,LU99A,0.295
11,NCI-H2085,0.761
12,A-427,0.201
13,NCI-H838,0.238
14,NCI-H596,0.862
15,NCI-H3122,0.392
16,NCI-H1395,0.782

row,Cell Line,relative viability
1,201T,0.91
2,NCI-H1993,0.58
3,HOP-62,0.31
4,NCI-H1355,0.549
5,NCI-H2405,0.736
6,NCI-H1437,0.376
7,CAL-12T,0.222
8,H3255,0.591
9,NCI-H2347,0.597
10,NCI-H1975,0.658
11,NCI-H441,0.676
12,NCI-H1915,0.433
13,NCI-H2087,0.241
14,HCC-366,0.0769
15,NCI-H1793,0.297
16,RERF-LC-KJ,0.45

# Same assay, conditions: first compound 1 µM
row,Cell Line,relative viability
1,LC-2-ad,0.433
2,LXF-289,0.213
3,NCI-H2170,0.632
4,NCI-H322M,0.493
5,HCC-78,0.497
6,BEN,0.38
7,HCC-15,0.273
8,HCC-827,0.385
9,NCI-H460,0.25
10,LU99A,0.321
11,NCI-H2085,0.815
12,A-427,0.186
13,NCI-H838,0.239
14,NCI-H596,0.847
15,NCI-H3122,0.405
16,NCI-H1395,0.762

row,Cell Line,relative viability
1,201T,0.941
2,NCI-H1993,0.607
3,HOP-62,0.313
4,NCI-H1355,0.42
5,NCI-H2405,0.645
6,NCI-H1437,0.336
7,CAL-12T,0.19
8,H3255,0.745
9,NCI-H2347,0.541
10,NCI-H1975,0.374
11,NCI-H441,0.507
12,NCI-H1915,0.427
13,NCI-H2087,0.229
14,HCC-366,0.0514
15,NCI-H1793,0.237
16,RERF-LC-KJ,0.443

# Compound: CC1(C)CCC(CN2CCN(c3ccc(C(=O)NS(=O)(=O)c4ccc(NCC5CCOCC5)c([N+](=O)[O-])c4)c(Oc4cnc5[nH]ccc5c4)c3)CC2)=C(c2ccc(Cl)cc2)C1 [Venetoclax] + COc1cc2c(Oc3ccc(NC(=O)C4(C(=O)Nc5ccc(F)cc5)CC4)cc3F)ccnc2cc1OCCCN1CCOCC1 [Foretinib] (partner 0.25 µM)
# Experiment: as above
# Conditions: first compound 0.01 µM
# Outline: as §1
row,Cell Line,relative viability
1,LC-2-ad,1.04
2,LXF-289,1.05
3,NCI-H2170,0.971
4,NCI-H322M,0.939
5,HCC-78,0.518
6,BEN,0.728
7,HCC-15,0.998
8,HCC-827,0.966
9,NCI-H460,0.978
10,LU99A,0.821
11,NCI-H2085,1.01
12,A-427,0.957
13,NCI-H838,1.05
14,NCI-H596,0.77
15,NCI-H3122,0.954
16,NCI-H1395,1.06

row,Cell Line,relative viability
1,201T,1.2
2,NCI-H1993,0.786
3,HOP-62,1.07
4,NCI-H1355,0.967
5,NCI-H2405,1.03
6,NCI-H1437,1.28
7,CAL-12T,1.17
8,H3255,0.835
9,NCI-H2347,1.05
10,NCI-H1975,0.936
11,NCI-H441,0.903
12,NCI-H1915,1.08
13,NCI-H2087,0.911
14,HCC-366,0.86
15,NCI-H1793,0.769
16,RERF-LC-KJ,0.793

# Same assay, conditions: first compound 0.03162 µM
row,Cell Line,relative viability
1,LC-2-ad,0.95
2,LXF-289,0.975
3,NCI-H2170,1.01
4,NCI-H322M,1
5,HCC-78,0.54
6,BEN,0.743
7,HCC-15,1.02
8,HCC-827,1.03
9,NCI-H460,0.941
10,LU99A,0.854
11,NCI-H2085,1.03
12,A-427,1.2
13,NCI-H838,1.04
14,NCI-H596,0.877
15,NCI-H3122,0.996
16,NCI-H1395,1.01

row,Cell Line,relative viability
1,201T,1.04
2,NCI-H1993,0.859
3,HOP-62,1.16
4,NCI-H1355,1.05
5,NCI-H2405,1.08
6,NCI-H1437,1.24
7,CAL-12T,1.14
8,H3255,1
9,NCI-H2347,1.39
10,NCI-H1975,1.02
11,NCI-H441,0.962
12,NCI-H1915,1.01
13,NCI-H2087,1.18
14,HCC-366,1.04
15,NCI-H1793,0.71
16,RERF-LC-KJ,0.94

# Same assay, conditions: first compound 0.1 µM
row,Cell Line,relative viability
1,LC-2-ad,0.938
2,LXF-289,0.991
3,NCI-H2170,0.939
4,NCI-H322M,0.915
5,HCC-78,0.525
6,BEN,0.561
7,HCC-15,0.96
8,HCC-827,0.971
9,NCI-H460,0.791
10,LU99A,0.78
11,NCI-H2085,0.905
12,A-427,0.944
13,NCI-H838,1.06
14,NCI-H596,1
15,NCI-H3122,0.924
16,NCI-H1395,1.04

row,Cell Line,relative viability
1,201T,0.976
2,NCI-H1993,0.863
3,HOP-62,0.997
4,NCI-H1355,1.05
5,NCI-H2405,1.01
6,NCI-H1437,1.25
7,CAL-12T,1.13
8,H3255,0.865
9,NCI-H2347,0.85
10,NCI-H1975,0.89
11,NCI-H441,0.966
12,NCI-H1915,1.06
13,NCI-H2087,1.13
14,HCC-366,0.872
15,NCI-H1793,0.619
16,RERF-LC-KJ,0.871

# Same assay, conditions: first compound 0.3162 µM
row,Cell Line,relative viability
1,LC-2-ad,0.947
2,LXF-289,0.941
3,NCI-H2170,0.995
4,NCI-H322M,0.972
5,HCC-78,0.484
6,BEN,0.681
7,HCC-15,0.931
8,HCC-827,0.98
9,NCI-H460,0.997
10,LU99A,0.747
11,NCI-H2085,0.919
12,A-427,1.24
13,NCI-H838,1.05
14,NCI-H596,0.956
15,NCI-H3122,0.942
16,NCI-H1395,1.07

row,Cell Line,relative viability
1,201T,0.98
2,NCI-H1993,0.783
3,HOP-62,1.08
4,NCI-H1355,1.02
5,NCI-H2405,0.999
6,NCI-H1437,1.26
7,CAL-12T,1.18
8,H3255,0.893
9,NCI-H2347,0.883
10,NCI-H1975,0.942
11,NCI-H441,0.97
12,NCI-H1915,1.01
13,NCI-H2087,0.955
14,HCC-366,0.963
15,NCI-H1793,0.79
16,RERF-LC-KJ,0.927

# Same assay, conditions: first compound 1 µM
row,Cell Line,relative viability
1,LC-2-ad,0.904
2,LXF-289,0.913
3,NCI-H2170,1
4,NCI-H322M,1.05
5,HCC-78,0.576
6,BEN,0.518
7,HCC-15,0.825
8,HCC-827,0.916
9,NCI-H460,0.951
10,LU99A,0.825
11,NCI-H2085,0.884
12,A-427,1.11
13,NCI-H838,0.961
14,NCI-H596,0.743
15,NCI-H3122,0.96
16,NCI-H1395,0.996

row,Cell Line,relative viability
1,201T,1.06
2,NCI-H1993,0.686
3,HOP-62,1.03
4,NCI-H1355,0.978
5,NCI-H2405,1.04
6,NCI-H1437,1.15
7,CAL-12T,1.05
8,H3255,0.788
9,NCI-H2347,0.854
10,NCI-H1975,0.929
11,NCI-H441,0.686
12,NCI-H1915,1.01
13,NCI-H2087,0.893
14,HCC-366,0.974
15,NCI-H1793,0.607
16,RERF-LC-KJ,0.784
